Experiments:
Test in all cases: relative viability (nuclei count vs DMSO), 5 days (fraction); higher = more cells survive
201T = tested on: 201T
Procedure, shortened: (§1)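 After 5 days of treatment, lung cancer cells in 1536-well plates were fixed and stained in a single step (final 0.05% Triton X-100, 1% formaldehyde, 1 ug/ml Hoechst) and their nuclei counted on 4× images. Treatment had been applied by pin tool the day after seeding as one drug alone or as a fixed anchor-drug dose with five library-drug doses (not always all listed) in √10 steps. Relative viability is the nuclei count of treated wells divided by that of vehicle wells, and values are medians of duplicate plates.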

BEN = tested on: BEN
Procedure, shortened: as §1

EMC-BAC-2 = tested on: EMC-BAC-2
Procedure, shortened: as §1

HARA = tested on: HARA
Procedure, shortened: as §1

HCC-44 = tested on: HCC-44
Procedure, shortened: as §1

LCLC-103H = tested on: LCLC-103H
Procedure, shortened: as §1

LOU-NH91 = tested on: LOU-NH91
Procedure, shortened: as §1

NCI-H1395 = tested on: NCI-H1395
Procedure, shortened: as §1

NCI-H1993 = tested on: NCI-H1993
Procedure, shortened: as §1

NCI-H2023 = tested on: NCI-H2023
Procedure, shortened: as §1

NCI-H2087 = tested on: NCI-H2087
Procedure, shortened: as §1

NCI-H2126 = tested on: NCI-H2126
Procedure, shortened: as §1

NCI-H2347 = tested on: NCI-H2347
Procedure, shortened: as §1

NCI-H23 = tested on: NCI-H23
Procedure, shortened: as §1

NCI-H3122 = tested on: NCI-H3122
Procedure, shortened: as §1

NCI-H441 = tested on: NCI-H441
Procedure, shortened: as §1

NCI-H522 = tested on: NCI-H522
Procedure, shortened: as §1

NCI-H647 = tested on: NCI-H647
Procedure, shortened: as §1

NCI-H650 = tested on: NCI-H650
Procedure, shortened: as §1

NCI-H727 = tested on: NCI-H727
Procedure, shortened: as §1

NCI-H838 = tested on: NCI-H838
Procedure, shortened: as §1

Q: What does the source list for Nc1ccn([C@@H]2O[C@H](CO)[C@@H](O)[C@@H]2O)c(=O)n1 [Cytarabine] + CC(=O)c1c(C)c2cnc(Nc3ccc(N4CCNCC4)cn3)nc2n(C2CCCC2)c1=O [Palbociclib] (partner 0.5 µM)?
A: relative viability (201T; first compound 0.005 µM): 0.369; relative viability (201T; first compound 0.01581 µM): 0.335; relative viability (201T; first compound 0.05 µM): 0.356; relative viability (201T; first compound 0.1581 µM): 0.271; relative viability (201T; first compound 0.5 µM): 0.31; relative viability (BEN; first compound 0.005 µM): 0.481; relative viability (BEN; first compound 0.01581 µM): 0.431; relative viability (BEN; first compound 0.05 µM): 0.458; relative viability (BEN; first compound 0.1581 µM): 0.377; relative viability (BEN; first compound 0.5 µM): 0.286; relative viability (EMC-BAC-2; first compound 0.005 µM): 0.51; relative viability (EMC-BAC-2; first compound 0.01581 µM): 0.501; relative viability (EMC-BAC-2; first compound 0.05 µM): 0.463; relative viability (EMC-BAC-2; first compound 0.1581 µM): 0.353; relative viability (EMC-BAC-2; first compound 0.5 µM): 0.303; relative viability (HARA; first compound 0.005 µM): 0.291; relative viability (HARA; first compound 0.01581 µM): 0.212; relative viability (HARA; first compound 0.05 µM): 0.221; relative viability (HARA; first compound 0.1581 µM): 0.158; relative viability (HARA; first compound 0.5 µM): 0.163; relative viability (HCC-44; first compound 0.005 µM): 0.997; relative viability (HCC-44; first compound 0.01581 µM): 0.942; relative viability (HCC-44; first compound 0.05 µM): 0.911; relative viability (HCC-44; first compound 0.1581 µM): 0.806; relative viability (HCC-44; first compound 0.5 µM): 0.812; relative viability (LCLC-103H; first compound 0.005 µM): 0.488; relative viability (LCLC-103H; first compound 0.01581 µM): 0.429; relative viability (LCLC-103H; first compound 0.05 µM): 0.498; relative viability (LCLC-103H; first compound 0.1581 µM): 0.439; relative viability (LCLC-103H; first compound 0.5 µM): 0.492; relative viability (LOU-NH91; first compound 0.005 µM): 0.478; relative viability (LOU-NH91; first compound 0.01581 µM): 0.54; relative viability (LOU-NH91; first compound 0.05 µM): 0.562; relative viability (LOU-NH91; first compound 0.1581 µM): 0.432; relative viability (LOU-NH91; first compound 0.5 µM): 0.412; relative viability (NCI-H1395; first compound 0.005 µM): 0.599; relative viability (NCI-H1395; first compound 0.01581 µM): 0.594; relative viability (NCI-H1395; first compound 0.05 µM): 0.492; relative viability (NCI-H1395; first compound 0.1581 µM): 0.406; relative viability (NCI-H1395; first compound 0.5 µM): 0.345; relative viability (NCI-H1993; first compound 0.005 µM): 0.714; relative viability (NCI-H1993; first compound 0.01581 µM): 0.489; relative viability (NCI-H1993; first compound 0.05 µM): 0.518; relative viability (NCI-H1993; first compound 0.1581 µM): 0.507; relative viability (NCI-H1993; first compound 0.5 µM): 0.323; relative viability (NCI-H2023; first compound 0.005 µM): 0.378; relative viability (NCI-H2023; first compound 0.01581 µM): 0.221; relative viability (NCI-H2023; first compound 0.05 µM): 0.129; relative viability (NCI-H2023; first compound 0.1581 µM): 0.0971; relative viability (NCI-H2023; first compound 0.5 µM): 0.088; relative viability (NCI-H2087; first compound 0.005 µM): 0.23; relative viability (NCI-H2087; first compound 0.01581 µM): 0.215; relative viability (NCI-H2087; first compound 0.05 µM): 0.231; relative viability (NCI-H2087; first compound 0.1581 µM): 0.167; relative viability (NCI-H2087; first compound 0.5 µM): 0.205; relative viability (NCI-H2126; first compound 0.005 µM): 0.352; relative viability (NCI-H2126; first compound 0.01581 µM): 0.312; relative viability (NCI-H2126; first compound 0.05 µM): 0.298; relative viability (NCI-H2126; first compound 0.1581 µM): 0.277; relative viability (NCI-H2126; first compound 0.5 µM): 0.261; relative viability (NCI-H2347; first compound 0.005 µM): 0.416; relative viability (NCI-H2347; first compound 0.01581 µM): 0.433; relative viability (NCI-H2347; first compound 0.05 µM): 0.413; relative viability (NCI-H2347; first compound 0.1581 µM): 0.386; relative viability (NCI-H2347; first compound 0.5 µM): 0.407; relative viability (NCI-H23; first compound 0.005 µM): 0.617; relative viability (NCI-H23; first compound 0.01581 µM): 0.367; relative viability (NCI-H23; first compound 0.05 µM): 0.299; relative viability (NCI-H23; first compound 0.1581 µM): 0.193; relative viability (NCI-H23; first compound 0.5 µM): 0.169; relative viability (NCI-H3122; first compound 0.005 µM): 0.188; relative viability (NCI-H3122; first compound 0.01581 µM): 0.389; relative viability (NCI-H3122; first compound 0.05 µM): 0.122; relative viability (NCI-H3122; first compound 0.1581 µM): 0.126; relative viability (NCI-H3122; first compound 0.5 µM): 0.113; relative viability (NCI-H441; first compound 0.005 µM): 0.198; relative viability (NCI-H441; first compound 0.01581 µM): 0.197; relative viability (NCI-H441; first compound 0.05 µM): 0.168; relative viability (NCI-H441; first compound 0.1581 µM): 0.139; relative viability (NCI-H441; first compound 0.5 µM): 0.17; relative viability (NCI-H522; first compound 0.005 µM): 1.09; relative viability (NCI-H522; first compound 0.01581 µM): 0.872; relative viability (NCI-H522; first compound 0.05 µM): 0.824; relative viability (NCI-H522; first compound 0.1581 µM): 0.767; relative viability (NCI-H522; first compound 0.5 µM): 0.595; relative viability (NCI-H647; first compound 0.005 µM): 0.316; relative viability (NCI-H647; first compound 0.01581 µM): 0.206; relative viability (NCI-H647; first compound 0.05 µM): 0.207; relative viability (NCI-H647; first compound 0.1581 µM): 0.0933; relative viability (NCI-H647; first compound 0.5 µM): 0.0634; relative viability (NCI-H650; first compound 0.005 µM): 0.238; relative viability (NCI-H650; first compound 0.01581 µM): 0.227; relative viability (NCI-H650; first compound 0.05 µM): 0.159; relative viability (NCI-H650; first compound 0.1581 µM): 0.157; relative viability (NCI-H650; first compound 0.5 µM): 0.175; relative viability (NCI-H727; first compound 0.005 µM): 0.613; relative viability (NCI-H727; first compound 0.01581 µM): 0.556; relative viability (NCI-H727; first compound 0.05 µM): 0.599; relative viability (NCI-H727; first compound 0.1581 µM): 0.554; relative viability (NCI-H727; first compound 0.5 µM): 0.505; relative viability (NCI-H838; first compound 0.005 µM): 0.228; relative viability (NCI-H838; first compound 0.01581 µM): 0.244; relative viability (NCI-H838; first compound 0.05 µM): 0.209; relative viability (NCI-H838; first compound 0.1581 µM): 0.2; relative viability (NCI-H838; first compound 0.5 µM): 0.149
